Experimental data taken from US7459455B2, “Pyrimidine compounds” (SmithKline Beecham Corporation, priority 2002, dated 2008).
Counter-ions that a name gives are not always drawn.

Assays:
[1] = tested on: Human umbilical cord endothelial cells (HUVEC); experiment: VEGF-Driven Cellular Proliferation Assay: BrdU Incorporation Assay (VEGF-C); assay type: cell-based
Protocol: VEGF-Driven Cellular Proliferation Assay: BrdU Incorporation Assay (VEGF-C)
Human umbilical cord endothelial cells (HUVEC, Clonetics, CC2519) were passaged in Type I collagen-coated 100-mm petridishes in EGM-MV medium (Clonetics, CC3125) at 37 C in a humidified 5% CO2, 95% air incubator. (HUVEC passaged more than 6 times in vitro were discarded and not subjected to assaying.) The cells were harvested using trypsin/EDTA, counted using a haemocytometer and plated at 5000 cells/well in a Type I-collagen coated 96-well plate (Becton Dickinson, 354407) in M199 medium (Gibco BRL, 12340-030) containing 5% FBS (Hyclone, A 1115-L) and gentamicin (at 50 ug/ml, Gibco BRL). After incubation overnight at 37° C., the media were replaced with 100 ul of M199 serum-free medium containing compounds at various concentrations with 0.6% DMSO and gentamicin. The compounds were diluted in serum-free M199 medium from 10 mM stock solutions prepared in 100% DMSO. After a 30 min incubation at 37° C. the cells were fed with 100 ul of serum-free M199 medium containing gentamicin, 0.2% culture-grade bovine serum albumin (BSA, Sigma A1993) and 20 ng/ml of VEGF (R&D systems, 293-VE) or 0.6 ng/ml of basic FGF (R&D systems, 233-FB), and cultured at 37° C. for another 24 h. The cells were pulsed with bromodeoxyuridine (BrdU at 10 μM in serum-free M199) at 37° C. for an additional 24 h. The incorporation of BrdU into the proliferating HUVEC were analyzed using BrdU Cell Proliferation ELISA (Roche Molecular Biochemicals, 1647229) according to the manufacturer's protocols. The optical density at 450 nm was measured with a multilabel counter (ARVO SX, Wallac). The percent inhibition of cell growth was calculated relative to blank control wells. The concentration of test compound that inhibits 50% of cell growth (IC50) was interpolated using nonlinear regression (Levernberg-Marquardt) and the equation, γ=Vmax (1−x/(K+x))+Y2, where “K” was equal to the IC50. The IC50 values were converted to pIC50 values, i.e., −log IC50 in Molar concentration.

Recombinant GST-Tie2 = target: T1, Recombinant GST-Tie2 (Homo sapiens, UniProt Q02763); experiment: Tie2 Fluorescence Polarization Kinase Activity Assay (TIE2-FP); assay type: biochemical; conditions: activated Tie2, 200 μM ATP
T1 construct: GST
T1 sequence (Q02763 770-1124 limits assumed): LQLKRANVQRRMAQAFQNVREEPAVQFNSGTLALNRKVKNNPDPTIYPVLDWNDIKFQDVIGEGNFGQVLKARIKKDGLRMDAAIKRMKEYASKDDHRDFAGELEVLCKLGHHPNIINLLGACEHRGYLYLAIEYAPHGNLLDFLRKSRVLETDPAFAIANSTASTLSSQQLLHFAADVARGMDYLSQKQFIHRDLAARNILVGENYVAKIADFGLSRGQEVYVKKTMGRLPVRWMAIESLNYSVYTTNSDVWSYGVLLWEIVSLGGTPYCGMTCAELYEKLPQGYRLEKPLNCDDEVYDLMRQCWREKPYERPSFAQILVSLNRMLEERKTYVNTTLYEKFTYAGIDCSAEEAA
Protocol: Tie2 Fluorescence Polarization Kinase Activity Assay: (TIE2-FP)
Activation of Recombinant Tie2 Activation:
Recombinant GST-Tie2 was activated by incubating the enzyme in 20 mM Tris-HCl, pH 7.5, 12 mM MgCl2, 100 mM NaCl, 20 μM sodium vanidate, 1 mM DT and 300 μM ATP at room temperature for 2 hours. The activation mixture was then passed through a NAP-25 desalting column (Pharmacia Biotech cat. no. 17-0852-O2) to remove the free ATP. The activated enzyme was stored as aliquots at −80° C. in 20 mM Tris-HCl, pH 7.5 and 100 mM NaCl.
The final assay conditions were 50 mM HEPES, pH 7.5, 5% DMSO (when screening compounds), 200 μM ATP, 5 mM MgCl2, 1 mM DTT, 50 μM sodium vanidate, 1 nM activated enzyme, and 200 μM peptide. IC50's of compounds were measured under subsaturating ATP (200 μM) and varing concentrations of activated Tie2 and peptide substrate (RFWKYEFWR-OH; MW 1873 Da, TFA salt). Panvera Anti-phosphotyrosine antibody (Cat#P2840) and PTK Green Tracer (Cat#P2842) were used to detect the phosphorylated peptide. Polarization was measured on a TECAN Polarion in 138-second cycles for 30 minutes at room temperature. IC50's were then determined from the % polarization using normal calculation methods.

GST-VEGFR2 = target: T2, GST-VEGFR2 (Homo sapiens, UniProt P35968); experiment: VEGF-R2 Enzyme Assay (VEGF-E), LANCE method; assay type: biochemical; conditions: GST-VEGFR2, 75 μM ATP, peptide phosphorylation
T2 construct: GST-VEGFR2, baculovirus expressed recombinant constructs of the intracellular domains of human TIE2 tagged by GST; made in house
T2 sequence (P35968 786-1356 limits assumed): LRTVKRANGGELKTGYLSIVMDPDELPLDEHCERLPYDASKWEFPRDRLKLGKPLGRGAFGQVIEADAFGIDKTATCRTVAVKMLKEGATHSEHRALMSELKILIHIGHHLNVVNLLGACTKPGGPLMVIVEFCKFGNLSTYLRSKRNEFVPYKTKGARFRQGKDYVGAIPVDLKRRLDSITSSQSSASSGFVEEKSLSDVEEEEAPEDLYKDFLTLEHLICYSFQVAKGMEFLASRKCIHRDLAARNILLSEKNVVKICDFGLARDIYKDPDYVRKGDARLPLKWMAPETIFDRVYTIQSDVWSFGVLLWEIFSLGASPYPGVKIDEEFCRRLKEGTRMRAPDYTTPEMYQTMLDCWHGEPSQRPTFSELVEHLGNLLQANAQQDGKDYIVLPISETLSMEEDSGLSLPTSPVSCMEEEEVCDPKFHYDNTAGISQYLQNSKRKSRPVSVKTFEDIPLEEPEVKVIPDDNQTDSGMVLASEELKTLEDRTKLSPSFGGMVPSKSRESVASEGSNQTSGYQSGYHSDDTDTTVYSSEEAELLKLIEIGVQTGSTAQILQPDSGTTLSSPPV
From the text: VEGF-R2 Enzyme Assay VEGF-E)
The VEGF enzyme assay used the LANCE method (Wallac) and GST-VEGFR2, baculovirus expressed recombinant constructs of the intracellular domains of human TIE2 tagged by GST. The method measured the ability of the purified enzymes to catalyse the transfer of the γ-phosphate from ATP onto tyrosine residues in a biotinylated synthetic peptide, (biotin-aminohexyl-EEEEYFELVAKKKK-NH2). This peptide phosphorylation was detected using the following procedure: GST-VEGFR2 was incubated for 40-60 mins at room temperature with 75 μM ATP, 5 mM MgCl2, 0.1 mM DTT, 0.1 mg/mL BSA and the test compound (diluted from a 10 mM stock in DMSO for desired concentration) in 100 mM HEPES buffer. The reaction was stopped by the addition of EDTA (final concentration 50 mM). Streptavidin linked-APC (allophycocyanin, Molecular Probe) and Europium-labeled anti-phosphorylated tyrosile antibody (Wallac) were then added at the final concentration of 15 nM and 1 nM, respectively. The APC signal was measured using an ARVO multilabel counter (Wallac Berthold, Japan). The percent inhibition of activity was calculated relative to blank control wells. The concentration of test compound that inhibits 50% of activity (IC50) was interpolated using nonlinear regression (Levernberg-Marquardt) and the equation, γ=Vmax (1−x/(K+x))+Y2, where “K” was equal to the IC50. The IC50 values were converted to pIC50 values, i.e., −log IC50 in Molar concentration.

For CN(c1ccc(NC(=O)Nc2ccc(OC(F)(F)F)cc2)cc1)c1ccnc(Nc2cccc(S(N)(=O)=O)c2)n1 [Example 1, 3-{[4-(methyl{4-[({[4-(trifluoromethoxy)phenyl]amino}carbonyl)amino]phenyl}-amino)pyrimidin-2-yl]amino}benzenesulfonamide], the IC50 [1] was under 100 nM, the IC50 (Recombinant GST-Tie2) was under 100 nM and the IC50 (GST-VEGFR2) was under 100 nM.
CN(c1ccc(NC(=O)Nc2ccc(C(F)(F)F)cc2)cc1)c1ccnc(Nc2cccc(S(N)(=O)=O)c2)n1 [Example 2, 3-{[4-(methyl{4-[({[4-(trifluoromethyl)phenyl]amino}carbonyl)amino]phenyl}amino)pyrimidin-2-yl]amino}benzenesulfonamide] gave an IC50 [1] of under 100 nM, an IC50 (Recombinant GST-Tie2) of under 100 nM and an IC50 (GST-VEGFR2) of under 100 nM.
For CN(c1ccc(NC(=O)Nc2ccc(Oc3ccccc3)cc2)cc1)c1ccnc(Nc2cccc(S(N)(=O)=O)c2)n1 [Example 3, 3-[(4-{methyl[4-({[(4-phenoxyphenyl)amino]carbonyl}amino)phenyl]amino}-pyrimidin-2-yl)amino]benzenesulfonamide], the IC50 [1] was under 100 nM, the IC50 (Recombinant GST-Tie2) was under 100 nM and the IC50 (GST-VEGFR2) was under 100 nM.
In the case of Cc1cccc(NC(=O)Nc2ccc(N(C)c3ccnc(Nc4cccc(S(N)(=O)=O)c4)n3)cc2)c1 [Example 4, 3-[(4-{methyl[4-({[(3-methylphenyl)amino]carbonyl}amino)phenyl]amino}pyrimidin-2-yl)amino]benzenesulfonamide], the IC50 [1] is reported as under 100 nM, the IC50 (Recombinant GST-Tie2) is reported as under 100 nM and the IC50 (GST-VEGFR2) is reported as under 100 nM.
Molecule CN(c1ccc(NC(=O)NCc2ccccc2Cl)cc1)c1ccnc(Nc2cccc(S(N)(=O)=O)c2)n1 [Example 5, 3-({4-[[4-({[(2-chlorobenzyl)amino]carbonyl}amino)phenyl](methyl)amino]pyrimidin-2-yl}amino)benzenesulfonamide] has an IC50 [1] of under 100 nM, an IC50 (Recombinant GST-Tie2) of under 100 nM and an IC50 (GST-VEGFR2) of under 100 nM.
Work on CCc1cccc(NC(=O)Nc2ccc(N(C)c3ccnc(Nc4cccc(S(N)(=O)=O)c4)n3)cc2)c1 [Example 6, 3-({4-[[4-({[(3-ethylphenyl)amino]carbonyl}amino)phenyl](methyl)amino]pyrimidin-2-yl}amino)benzenesulfonamide] yielded an IC50 [1] of under 100 nM, an IC50 (Recombinant GST-Tie2) of under 100 nM and an IC50 (GST-VEGFR2) of under 100 nM.
Work on CN(c1ccc(NC(=O)Nc2cccc(F)c2)cc1)c1ccnc(Nc2cccc(S(N)(=O)=O)c2)n1 [Example 7, 3-({4-[[4-({[(3-Fluorophenyl)amino]corbonyl}amino)phenyl](methyl)amino]pyrimidin-2-yl}amino)benzenesulfonamide] yielded an IC50 [1] of under 100 nM, an IC50 (Recombinant GST-Tie2) of under 100 nM and an IC50 (GST-VEGFR2) of under 100 nM.
Work on CCS(=O)(=O)c1ccc(OC)c(Nc2nccc(N(C)c3ccc(NC(=O)Nc4cccc(Cl)c4)cc3)n2)c1 [Example 8, N-(3-Chlorophenyl)-N′-{4-[(2-{[5-(ethylsulfonyl)-2-methoxyphenyl]amino}pyrimidin-4-yl)(methyl)amino]phenyl}urea] yielded an IC50 [1] of under 100 nM, an IC50 (Recombinant GST-Tie2) of under 100 nM and an IC50 (GST-VEGFR2) of under 100 nM.
Molecule CN(c1ccc(NC(=O)Nc2cccc(Cl)c2)cc1)c1ccnc(Nc2cccc(S(N)(=O)=O)c2)n1 [Example 9, 3-({4-[[4-({[(3-Chlorophenyl)amino]carbonyl}amino)phenyl](methyl)amino]-pyrimidin-2-yl}amino)benzenesulfonamide] has an IC50 [1] of under 100 nM, an IC50 (Recombinant GST-Tie2) of under 100 nM and an IC50 (GST-VEGFR2) of under 100 nM.
Molecule CN(c1ccc(NC(=O)Nc2ccccc2)cc1)c1ccnc(Nc2cccc(S(N)(=O)=O)c2)n1 [Example 10, 3-({4-[{4-[(anilinocarbonyl)amino]phenyl}(methyl)amino]pyrimidin-2-yl}amino)benzenesulfonamide] has an IC50 [1] of under 100 nM, an IC50 (Recombinant GST-Tie2) of under 100 nM and an IC50 (GST-VEGFR2) of under 100 nM.
CN(c1ccc(NC(=O)Nc2cc(C(F)(F)F)ccc2F)cc1)c1ccnc(Nc2cccc(S(N)(=O)=O)c2)n1 [Example 11, 3-({4-[{4-[({[2-Fluoro-5-(trifluoromethyl)phenyl]amino}carbonyl)amino]phenyl}(methyl)amino]pyrimidin-2-yl}amino)benzenesulfonamide] was tested, and the IC50 [1] was under 100 nM, the IC50 (Recombinant GST-Tie2) was under 100 nM and the IC50 (GST-VEGFR2) was under 100 nM.
CN(c1ccc(NC(=O)Nc2cccc(F)c2)cc1)c1ccnc(Nc2ccc(CS(C)(=O)=O)cc2)n1 [Example 12, N-(3-fluorophenyl)-N′-(4-{methyl[2-({4-[(methylsulfonyl)methyl]phenyl}amino)pyrimidin-4-yl]amino}phenyl)urea hydrochloride] showed an IC50 [1] of under 100 nM, an IC50 (Recombinant GST-Tie2) of under 100 nM and an IC50 (GST-VEGFR2) of under 100 nM.
CN(c1ccc(NC(=O)Nc2cc(C(F)(F)F)ccc2F)cc1)c1ccnc(Nc2ccc(CS(C)(=O)=O)cc2)n1 [Example 13, N-[2-fluoro-5-(trifluoromethyl)phenyl]-N′-(4-{methyl[2-({4-(methylsulfonyl)methyl]phenyl}amino)pyrimidin-4-yl]amino}phenyl)urea hydrochloride] showed an IC50 [1] of under 100 nM, an IC50 (Recombinant GST-Tie2) of under 100 nM and an IC50 (GST-VEGFR2) of under 100 nM.
Molecule CN(c1cccc(NC(=O)Nc2cc(C(F)(F)F)ccc2F)c1)c1ccnc(Nc2cccc(S(N)(=O)=O)c2)n1 [Example 14, 3-({4-[{3-[({[2-Fluoro-5-(trifluoromethyl)phenyl]amino}carbonyl)amino]phenyl}(methyl)amino]pyrimidin-2-yl}amino)benzenesulfonamide] has an IC50 [1] of under 100 nM, an IC50 (Recombinant GST-Tie2) of under 100 nM and an IC50 (GST-VEGFR2) of under 100 nM.
With CN(c1cccc(NC(=O)Nc2cccc(Cl)c2)c1)c1ccnc(Nc2cccc(S(N)(=O)=O)c2)n1 [Example 15, 3-({4-[[3-({[(3-Chlorophenyl)amino]carbonyl}amino)phenyl](methyl)amino]pyrimidin-2-yl}amino)benzenesulfonamide] the IC50 [1] was under 100 nM, the IC50 (Recombinant GST-Tie2) was under 100 nM and the IC50 (GST-VEGFR2) was under 100 nM.
For CN(c1cccc(NC(=O)Nc2cccc(F)c2)c1)c1ccnc(Nc2cccc(S(N)(=O)=O)c2)n1 [Example 16, 3-({4-[[3-({[(3-Fluorophenyl)amino]carbonyl}amino)phenyl](methyl)amino]pyrimidin-2-yl}amino)benzenesulfonamide], the IC50 [1] was under 100 nM, the IC50 (Recombinant GST-Tie2) was 100 to 1000 nM and the IC50 (GST-VEGFR2) was under 100 nM.
Molecule CCS(=O)(=O)c1ccc(OC)c(Nc2nccc(N(C)c3ccc(NC(=O)Nc4cc(C(F)(F)F)ccc4F)cc3)n2)c1 [Example 17, N-{4-[(2-{[5-(Ethylsulfonyl)-2-methoxyphenyl]amino}pyrimidin-4-yl)(methyl)amino]phenyl}-N′-[2-fluoro-5-(trifluoromethyl)phenyl]urea] has an IC50 [1] of under 100 nM, an IC50 (Recombinant GST-Tie2) of under 100 nM and an IC50 (GST-VEGFR2) of under 100 nM.
